From patent publication US10889569B2, “Condensed ring group azacyclobutyl triazole derivative, preparation method therefor and use thereof in medicine” (Jiangsu Hengrui Medicine Co., Ltd., priority 2016, dated 2021)

Tests used:
human V1bR = human V1bR (Homo sapiens, UniProt P47901); assay: Inhibition activity on human V1bR (Fluo-4 calcium assay, HEK293/human V1bR pool cells); type: cell-based; conditions: vasopressin 3 nM
Experimental: The inhibition effect of the compounds of the present invention on the activity of human V1bR protein expressed in HEK293/human V1bR cells was determined by the following experimental method:
The pcDNA3.1-V1bR plasmid was transferred into HEK293 cells with the Lipofectamine® 3000 transfection reagent; G418 was added on the next day, and the HEK293/human V1bR pool cell lines were obtained.
(§1) HEK293/human V1bR pool cells were inoculated in a 96-well plate with an inoculation density of 25,000 cells/well one day in advance. On the next day, a loading buffer containing Fluo-4 dye was formulated using the reagents in the Fluo-4 NW calcium assay kit, and the culture medium was then removed; 100 μl of the loading buffer containing Fluo-4 dye were added to each well, and the plate was incubated at 37° C. for 30 minutes. After that, the plate was moved to room temperature and equilibrated for 10 minutes. The compounds were formulated into 10^6, 10^5, 10^4, 10^3, 10^2 and 10^1 nM. 1 μl of the compounds in each concentration was added to each well, and the plate was incubated at room temperature for 10 minutes. 50 μl of vasopressin polypeptide (3 nM) were automatically added by the machine, and the values were immediately detected at 494/516 nM by the flexstation 3 microplate reader. IC50 values of the compounds were calculated by Graphpad prism software using fluorescence signals corresponding to different concentrations.
The inhibition activity of the compounds of the present invention on human V1bR was determined by the above test, and the obtained IC50 values are shown in Table 3.

human V1aR = human V1aR (Homo sapiens (Human), UniProt P37288); assay: Inhibition activity on human V1aR (Fluo-4 calcium assay, HEK293/human V1aR stably transfected cells); type: cell-based; conditions: vasopressin 3 nM
human V1aR, sequence (P37288 whole entry): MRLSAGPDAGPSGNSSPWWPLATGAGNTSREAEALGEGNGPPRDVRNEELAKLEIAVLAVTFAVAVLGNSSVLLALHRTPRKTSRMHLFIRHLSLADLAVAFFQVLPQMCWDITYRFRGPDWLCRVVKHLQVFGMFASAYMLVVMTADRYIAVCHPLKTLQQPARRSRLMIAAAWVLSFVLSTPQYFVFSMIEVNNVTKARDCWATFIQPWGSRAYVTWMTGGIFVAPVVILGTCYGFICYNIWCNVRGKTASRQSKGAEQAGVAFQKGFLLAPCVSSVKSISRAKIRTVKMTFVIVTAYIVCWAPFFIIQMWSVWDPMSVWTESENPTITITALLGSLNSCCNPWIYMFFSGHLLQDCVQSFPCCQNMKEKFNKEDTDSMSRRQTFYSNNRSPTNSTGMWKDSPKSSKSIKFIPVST
Experimental: The inhibition effect of the compounds of the present invention on the activity of human V1 aR protein expressed in HEK293/human V1aR stably transfected cells was determined by the following experimental method:
The pcDNA3.1-V1aR plasmid was transferred into HEK293 cells with the Lipofectamine® 3000 transfection reagent; G418 was added on the next day to screen, and monoclonal cell lines were selected.
as §1, with “V1aR stably transfected” for “V1bR pool”, “at” for “into”
The inhibition activity of the compounds of the present invention on human V1aR was determined by the above test, and the obtained IC50 values are shown in Table 2.

human V2R = human V2R (Homo sapiens (Human), UniProt P30518); assay: Inhibition activity on human V2R (cAMP HTRF assay, HEK293/human V2R pool cells); type: cell-based; conditions: vasopressin
human V2R, sequence (P30518 whole entry): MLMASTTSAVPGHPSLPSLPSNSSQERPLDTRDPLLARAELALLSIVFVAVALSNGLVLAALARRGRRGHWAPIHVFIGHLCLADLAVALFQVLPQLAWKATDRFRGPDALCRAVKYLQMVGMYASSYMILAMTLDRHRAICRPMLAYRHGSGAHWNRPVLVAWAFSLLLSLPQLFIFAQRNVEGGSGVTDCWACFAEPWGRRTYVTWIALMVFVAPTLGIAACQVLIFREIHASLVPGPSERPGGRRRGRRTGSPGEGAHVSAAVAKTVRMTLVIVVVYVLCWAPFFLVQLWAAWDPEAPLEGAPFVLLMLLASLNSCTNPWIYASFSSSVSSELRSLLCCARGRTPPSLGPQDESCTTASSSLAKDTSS
Experimental: The inhibition effect of the compounds of the present invention on the activity of human V2R protein expressed in HEK293/human V2R cells was determined by the following experimental method:
The pcDNA3.1-V2R plasmid was transferred into HEK293 cells with the Lipofectamine® 3000 transfection reagent; G418 was added on the next day, and the HEK293/human V2R pool cell lines were obtained.
HEK293/human V2R pool cells were dissociated with the cell dissociation solution (enzyme-free), thereby dissociating the cells from the cell culture dish into individual cells. Then the cell solution was blown well, and centrifuged to remove the supernatant. The cells were resuspended in the test buffer 1 (1×HBSS+20 mM HEPES+0.1% BSA) and counted. The cell density was adjusted to 1250 cells/5 μl, i.e., 2.5*10^5/ml.
The compounds were formulated into a series of concentrations of 20 mM, 6.67 mM, 2.22 mM, 0.74 mM, 0.25 mM, 0.08 mM, 27.4 μM, 9.14 μM, 3.05 μM, 1.02 μM, 0.34 μM and 0 μM (DMSO) with pure DMSO. The compounds were then diluted into a 4-fold working concentration solution with the test buffer 2 (test buffer 1+1 mM IBMX).
Agonist: 460 μM vasopressin was used as the mother liquor, which was formulated at 2 μM with DMSO, and then diluted to 0.5 nM with the test buffer 2.
Standards: The first point was 20 μl of a stock solution (2848 nM), which was diluted successively to a total of eleven concentrations in a 4-fold concentration gradient with the test buffer 1 from the second point.
1. The well-mixed cells were added to a 384-well plate (5 μl/well) without changing the tip.
2. The test compounds and positive compound formulated were added (2.5 μl/well), and the tips were changed.
3. The plate was centrifuged at 1000 rpm for 1 min, shaken for 30 sec to mix well, and incubated at room temperature for 30 min.
4. The standard curve wells were added with the test buffer 2 (5 μl/well).
5. The formulated agonist was added (2.5 μl/well), and the tips were changed; the plate was centrifuged at 1000 rpm for 1 min, shaken for 30 sec to mix well, and incubated at room temperature for 30 min.
6. cAMP-d2 (a component in the cAMP dynamic 2 kit) and Anti-cAMP-Eu-Cryptate (a component in the cAMP dynamic 2 kit) were formulated in the dark, which were then mixed well with cAMP lysate (a component in the cAMP dynamic 2 kit) in a ratio of 1:4. Each well was added with the formulated cAMP-d2 solution (5 μl/well), followed by addition of Anti-cAMP-Eu-Cryptate (5 μl/well). The plate was shaken for 30 sec to mix well, and incubated in the dark at room temperature for 1 h.
The HTRF Signals were Read by the PheraStar Multi-Function Microplate Reader.
The data in this test was processed using the data processing software Graphpad Prism.
The inhibition activity of the compounds of the present invention on human V2R was determined by the above test, and the IC50 values obtained are shown in Table 4.

human OTR = human OTR (Homo sapiens, UniProt P30559); assay: Inhibition activity on human OTR (Fluo-4 calcium assay, HEK293/human OTR stably transfected cells); type: cell-based; conditions: oxytocin 3 nM
Experimental: The inhibition effect of the compounds of the present invention on the activity of human OTR protein expressed in HEK293/human OTR stably transfected cells was determined by the following experimental method:
The pcDNA3.1-hOTR plasmid was transferred into HEK293 cells with the Lipofectamine® 3000 transfection reagent; G418 was added on the next day to screen, and monoclonal cell lines were selected.
as §1, with “OTR stably transfected” for “V1bR pool”, “at” for “into”, “oxytocin” for “vasopressin”
The inhibition activity of the compounds of the present invention on human OTR was determined by the above test, and the obtained IC50 values are shown in Table 1.

[1] = Pharmacokinetics assay in rats after intragastrical administration; type: in vivo, SD rats; conditions: Sprague-Dawley, rat, plasma, po, 30 mg/kg, intragastric, male rats
Experimental: Male SD rats were used as test animals. The drug concentration in plasma at different time points was determined by LC/MS/MS method after intragastrical administration of the compounds of Examples 2, 17, 34, 37, 38, 39 and 43 to rats. The pharmacokinetic behavior of the compounds of the present invention was studied and evaluated in rats.
Twenty-one healthy adult male Sprague-Dawley (SD) rats were purchased from Shanghai Jiesijie Laboratory Animal Co., LTD, with Certificate No.: SCXK (Shanghai) 2013-0006, and equally divided into 7 groups (3 rats per group).
A certain amount of the test compound was weighed, and added with 2.5% by volume of DMSO and 97.5% by volume of 10% solutol HS-15 to formulate a […] colorless, clear and transparent solution.
After an overnight fast, SD rats were administered intragastrically the test compounds at an administration dosage of 30.0 mg/kg and an administration volume of 10.0 mL/kg.
The rats were intragastrically administered the compounds of Examples 2, 17, 34, 37, 38, 39 and 43. 0.2 mL of blood was taken from the orbital sinus before administration and at 0.5, 1.0, 2.0, 4.0, 6.0, 8.0, 11.0 and 24.0 hours after administration. The samples were stored in heparinized tubes, and centrifuged for 10 minutes at 4° C. at 3500 rpm to separate the plasma. The plasma samples were stored at −20° C. The rats were fed 2 hours after administration.
The content of the test compounds in the plasma of rats after intragastrical administration of the test compounds at different concentrations was determined: 50 μL of rat plasma at each time after administration was taken, added with 50 μL of the internal standard solution of camptothecin (100 ng/mL) and 150 μL of acetonitrile, vortex-mixed for 5 minutes, and centrifuged for 10 minutes (4000 rpm). 3 μL of the supernatant was taken from the plasma samples for LC/MS/MS analysis.

## COCc1nnc(N2CC(c3ccnc4cc(F)ccc34)C2)n1-c1ccc(OC)nc1 [Example 1, 7-Fluoro-4-(1-(5-(methoxymethyl)-4-(6-methoxypyridin-3-yl)-4H-1,2,4-triazol-3-yl)azetidin-3-yl)quinoline]
Human V1bR
  IC50: 448 µM
Human V1aR
  IC50: 18.1 µM
Human V2R
  IC50: > 100 µM

## COCc1nnc(N2CC(c3csc4cc(F)ccc34)C2)n1-c1ccc(OC)nc1 [Example 9, 5-(3-(3-(6-Fluorobenzo[b]thiophen-3-yl)azetidin-1-yl)-5-(methoxymethyl)-4H-1,2,4-triazol-4-yl)-2-methoxypyridine]
Human V1bR
  IC50: 42.7 µM
Human V1aR
  IC50: 1.2 µM
Human OTR
  IC50: 0.04 µM
Human V2R
  IC50: 12.5 µM

## COCc1nnc(N2CC(c3coc4cc(F)ccc34)C2)n1-c1ccc(OC)nc1 [Example 11, 5-(3-(3-(6-Fluorobenzofuran-3-yl)azetidin-1-yl)-5-(methoxymethyl)-4H-1,2,4-triazol-4-yl)-2-methoxypyridine]
Human V1aR
  IC50: 2.3 µM
Human OTR
  IC50: 0.221 µM
Human V2R
  IC50: 25.7 µM

## COCc1nnc(N2CC(N3C(=O)COc4cc(F)ccc43)C2)n1-c1ccc(OC)nc1 [Example 18, 7-Fluoro-4-(1-(5-(methoxymethyl)-4-(6-methoxypyridin-3-yl)-4H-1,2,4-triazol-3-yl)azetidin-3-yl)-2H-benzo[b][1,4]oxazin-3(4H)-one]
Human V1bR
  IC50: 59.5 µM
Human V1aR
  IC50: 59.5 µM
Human V2R
  IC50: 59.4 µM

## COCc1nnc(N2CC(N3CCc4cc(F)ccc43)C2)n1-c1ccc(OC)nc1 [Example 23, 5-Fluoro-1-(1-(5-(methoxymethyl)-4-(6-methoxypyridin-3-yl)-4H-1,2,4-triazol-3-yl)azetidin-3-yl)indoline]
Human V2R
  IC50: 52 µM

## CCOCc1nnc(N2CC(N3CCCc4cc(F)ccc43)C2)n1-c1ccc(OC)nc1 [Example 26, 1-(1-(5-(Ethoxymethyl)-4-(6-methoxypyridin-3-yl)-4H-1,2,4-triazol-3-yl)azetidin-3-yl)-6-fluoro-1,2,3,4-tetrahydroquinoline]
Human V1bR
  IC50: 61 µM
Human OTR
  IC50: 0.007 µM
Human V2R
  IC50: 1.4 µM

## CCOCc1nnc(N2CC(N3CCCc4cc(F)ccc43)C2)n1-c1ccc2c(c1)OCO2 [Example 27, 1-(1-(4-(Benzo[d][1,3]dioxolan-5-yl)-5-(ethoxymethyl)-4H-1,2,4-triazol-3-yl)azetidin-3-yl)-6-fluoro-1,2,3,4-tetrahydroquinoline]
Human V1bR
  IC50: 13.9 µM
Human OTR
  IC50: 0.008 µM
Human V2R
  IC50: 9.1 µM

## COc1ccc(-n2c(C)nnc2N2CC(N3CCOc4cc(F)ccc43)C2)cn1 [Example 32, 7-Fluoro-4-(1-(4-(6-methoxypyridin-3-yl)-5-methyl-4H-1,2,4-triazol-3-yl)azetidin-3-yl)-3,4-dihydro-2H-benzo[b][1,4]oxazine]
Human V1bR
  IC50: 77.2 µM
Human V1aR
  IC50: 23 µM
Human V2R
  IC50: > 100 µM

## COc1ccc(-n2c(N3CC(N4CCOc5cc(F)ccc54)C3)nnc2C(F)(F)F)cn1 [Example 43, 7-Fluoro-4-(1-(4-(6-methoxypyridin-3-yl)-5-(trifluoromethyl)-4H-1,2,4-triazol-3-yl)azetidin-3-yl)-3,4-dihydro-2H-benzo[b][1,4]oxazine]
Human V1aR
  IC50: 7.9 µM
[1]; read-out: Apparent distribution volume Vz/F
  Vd/F: 31.1 ± 19.3 L/kg
[1]; read-out: Area under curve AUC
  AUC: 5560 ± 2330 ng·h/mL
[1]; read-out: Clearance CLz/F
  CL/F: 3.81 ± 0.12 mL/min/kg
[1]; read-out: Half-life T1/2 (converted)
  half-life: 3.31 ± 0.23 h
[1]; read-out: Plasma concentration Cmax
  Cmax: 1580 ± 601 ng/mL
Human OTR
  IC50: 0.015 µM
